The results in this text go back to patent US10344017B2, “Pyrrolcarboxamide derivatives for the inhibition of ERK5” (CANCER RESEARCH TECHNOLOGY LIMITED, priority 2014, dated 2019).

The IC50 is the point on the concentration scale where inhibition reaches its midpoint.

The assay has as its target T1, ERK5 (Homo sapiens, UniProt Q13164).
T1 construct: made in house
The assay is described as follows: ERK5 IMAP assay (fluorescence polarisation). The assay is classed as biochemical. As to conditions: average (e.g. geometric mean) where more than one data point; read-out: ERK5 IC50. For orientation: In fluorescence polarisation assays a small probe gives low polarisation when free and higher when bound to something large.

Molecules are shown by their SMILES.

T1 sequence (Q13164 whole entry): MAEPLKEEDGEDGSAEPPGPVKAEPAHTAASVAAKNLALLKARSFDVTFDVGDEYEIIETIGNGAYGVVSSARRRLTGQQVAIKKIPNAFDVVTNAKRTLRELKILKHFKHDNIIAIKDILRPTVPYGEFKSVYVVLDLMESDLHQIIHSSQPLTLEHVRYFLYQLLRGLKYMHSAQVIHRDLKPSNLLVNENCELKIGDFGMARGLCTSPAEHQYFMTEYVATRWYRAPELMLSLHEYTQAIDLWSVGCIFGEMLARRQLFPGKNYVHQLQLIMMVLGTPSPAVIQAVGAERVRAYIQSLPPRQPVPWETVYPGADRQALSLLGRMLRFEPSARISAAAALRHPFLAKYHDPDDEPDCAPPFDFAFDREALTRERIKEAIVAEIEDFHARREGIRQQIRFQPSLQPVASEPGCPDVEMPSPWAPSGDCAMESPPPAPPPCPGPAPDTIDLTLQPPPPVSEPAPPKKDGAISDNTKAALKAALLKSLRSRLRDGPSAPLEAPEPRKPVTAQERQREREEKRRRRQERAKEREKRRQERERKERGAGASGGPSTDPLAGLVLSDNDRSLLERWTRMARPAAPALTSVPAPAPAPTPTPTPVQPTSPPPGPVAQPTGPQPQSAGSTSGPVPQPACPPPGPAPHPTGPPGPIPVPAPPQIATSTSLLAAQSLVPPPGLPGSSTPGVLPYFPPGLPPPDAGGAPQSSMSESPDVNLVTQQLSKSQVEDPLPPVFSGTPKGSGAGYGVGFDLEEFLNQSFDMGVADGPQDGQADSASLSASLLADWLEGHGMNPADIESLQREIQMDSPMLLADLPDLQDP

In the case of `O=C(Nc1cccnc1)c1cc(C(=O)c2c(F)ccc(C(=O)O)c2F)c[nH]1` [Example 266, 2,4-difluoro-3-(5-(pyridin-3-ylcarbamoyl)-1H-pyrrole-3-carbonyl) benzoic Acid], the half-maximal inhibitory concentration (IC50) came out at 1930 nM.

Regarding `Cc1cc(NC(=O)c2cc(C(=O)c3c(F)cccc3Cl)c[nH]2)cc(C)n1` [Example 134, 4-(2-Chloro-6-fluorobenzoyl)-N-(2,6-dimethylpyridin-4-yl)-1H-pyrrole-2-carboxamide], the IC50 worked out at 368 nM. To `CC(C)(C)OC(=O)N1CCC(NC(=O)c2cc(C(=O)c3c(F)cccc3Br)c[nH]2)CC1` [Example 196, tert-Butyl 4-(4-(2-bromo-6-fluorobenzoyl)-1H-pyrrole-2-carboxamido)piperidine-1-carboxylate] belongs 2720 nM; to `CC(C)(C)OC(=O)N1CCC(NC(=O)c2cc(C(=O)c3c(F)cccc3Cl)c[nH]2)CC1` [Example 193, tert-Butyl 4-(4-(2-chloro-6-fluorobenzoyl)-1H-pyrrole-2-carboxamido)piperidine-1-carboxylate], 1080 nM; to `O=C(Nc1cncnc1)c1cc(C(=O)c2c(F)ccc(Cl)c2F)c[nH]1` [Example 211, 4-(3-Chloro-2,6-difluorobenzoyl)-N-(pyrimidin-5-yl)-1H-pyrrole-2-carboxamide], 226 nM. To `COc1ccncc1NC(=O)c1cc(C(=O)c2c(F)cccc2Cl)c[nH]1` [Example 90, 4-(2-Chloro-6-fluorobenzoyl)-N-(4-methoxypyridin-3-yl)-1H-pyrrole-2-carboxamide] belongs 2190 nM; to `COc1cc(NC(=O)c2cc(C(=O)c3c(F)cccc3Cl)c[nH]2)ccn1` [Example 40, 4-(2-Chloro-6-fluorobenzoyl)-N-(2-methoxypyridin-4-yl)-1H-pyrrole-2-carboxamide], 1830 nM. As for `CCc1cccc(F)c1C(=O)c1c[nH]c(C(=O)NC2CCN(C)CC2)c1` [Example 201, 4-(2-Ethyl-6-fluorobenzoyl)-N-(1-methylpiperidin-4-yl)-1H-pyrrole-2-carboxamide], the half-inhibitory concentration (IC50) turned out to be 4970 nM. In the case of `COc1ccncc1NC(=O)c1cc(C(=O)c2c(Cl)ccc(Cl)c2F)c[nH]1` [Example 96, 4-(3,6-Dichloro-2-fluorobenzoyl)-N-(4-methoxypyridin-3-yl)-1H-pyrrole-2-carboxamide] it was 1000 nM; in that of `CS(=O)(=O)CCn1cc(NC(=O)c2cc(C(=O)c3c(Cl)ccc(Cl)c3F)c[nH]2)cn1` [Example 238, 4-(3,6-Dichloro-2-fluorobenzoyl)-N-(1-(2-(methylsulfonyl)ethyl)-1H-pyrazol-4-yl)-1H-pyrrole-2-carboxamide], 119 nM. To `O=C(Nc1cncnc1)c1cc(C(=O)c2c(F)ccc(F)c2F)c[nH]1` [Example 207, N-(Pyrimidin-5-yl)-4-(2,3,6-trifluorobenzoyl)-1H-pyrrole-2-carboxamide] belongs 1070 nM; to `CN1CCC(NC(=O)c2cc(C(=O)c3c(F)ccc(Cl)c3Cl)c[nH]2)CC1` [Example 171, 4-(2,3-Dichloro-6-fluorobenzoyl)-N-(1-methylpiperidin-4-yl)-1H-pyrrole-2-carboxamide], 283 nM. In the case of `O=C(Nc1ccc(F)nc1)c1cc(C(=O)c2c(F)cccc2Br)c[nH]1` [Example 153, 4-(2-Bromo-6-fluorobenzoyl)-N-(6-fluoropyridin-3-yl)-1H-pyrrole-2-carboxamide] it was 1700 nM; in that of `Cc1ccc(Cl)c(C(=O)c2c[nH]c(C(=O)Nc3cccnc3)c2)c1F` [Example 178, 4-(6-Chloro-2-fluoro-3-methylbenzoyl)-N-(pyridin-3-yl)-1H-pyrrole-2-carboxamide], 515 nM; in that of `COc1ccc(F)c(C(=O)c2c[nH]c(C(=O)Nc3cncnc3)c2)c1Cl` [Example 75, 4-(2-chloro-6-fluoro-3-methoxybenzoyl)-N-(pyrimidin-5-yl)-1H-pyrrole-2-carboxamide], 437 nM. In the case of `CC(C)(C)OC(=O)N1CCC(NC(=O)c2cc(C(=O)c3c(Cl)ccc(Cl)c3F)c[nH]2)CC1` [Example 2, tert-Butyl 4-(4-(3,6-dichloro-2-fluorobenzoyl)-1H-pyrrole-2-carboxamido)piperidine-1-carboxylate], the IC50 was 1350 nM. In the case of `O=C(Nc1cccnc1)c1cc(C(=O)c2c(Cl)ccc(O)c2F)c[nH]1` [Example 254, 4-(6-Chloro-2-fluoro-3-hydroxybenzoyl)-N-(pyridin-3-yl)-1H-pyrrole-2-carboxamide], the IC50 was 1190 nM. As for `CCOc1ccc(Cl)c(C(=O)c2c[nH]c(C(=O)Nc3cnn(C)c3)c2)c1F` [Example 257, 4-(6-Chloro-3-ethoxy-2-fluorobenzoyl)-N-(1-methyl-1H-pyrazol-yl)-1H-pyrrole-2-carboxamide], the IC50 came to 203 nM. To `CN1CCC(NC(=O)c2cc(C(=O)c3c(Cl)ccc(Cl)c3F)c[nH]2)CC1` [Example 174, 4-(3,6-dichloro-2-fluorobenzoyl)-N-(1-methylpiperidin-4-yl)-1H-pyrrole-2-carboxamide] belongs 115 nM. For `C#Cc1cccc(F)c1C(=O)c1c[nH]c(C(=O)NC2CCN(C)CC2)c1` [Example 205, 4-(2-Ethynyl-6-fluorobenzoyl)-N-(1-methylpiperidin-4-yl)-1H-pyrrole-2-carboxamide], the IC50 was found to be 2840 nM. For the molecule `O=C(Nc1ccnnc1)c1cc(C(=O)c2c(F)cccc2Cl)c[nH]1` [Example 138, 4-(2-Chloro-6-fluorobenzoyl)-N-(pyridazin-4-yl)-1H-pyrrole-2-carboxamide], the IC50 came out at 439 nM.

On to `O=C(Nc1cnn(C2COC2)c1)c1cc(C(=O)c2c(Cl)ccc(Cl)c2F)c[nH]1` [Example 239, 4-(3,6-Dichloro-2-fluorobenzoyl)-N-(1-(oxetan-3-yl)-1H-pyrazol-4-yl)-1H-pyrrole-2-carboxamide], for which the IC50 was 86.6 nM. To `O=C(Nc1cccnc1)c1cc(C(=O)c2c(F)ccc(Cl)c2Cl)c[nH]1` [Example 169, 4-(2,3-Dichloro-6-fluorobenzoyl)-N-(pyridin-3-yl)-1H-pyrrole-2-carboxamide] belongs 265 nM; to `Cn1ccnc1Cn1cc(NC(=O)c2cc(C(=O)c3c(Cl)ccc(Cl)c3F)c[nH]2)cn1` [Example 51, 4-(3,6-Dichloro-2-fluorobenzoyl)-N-(1-((1-methyl-1H-imidazol-2-yl)methyl)-1H-pyrazol-4-yl)-1H-pyrrole-2-carboxamide], 17.6 nM. To `O=C(NC1CCNCC1)c1cc(C(=O)c2c(F)ccc(Cl)c2F)c[nH]1` [Example 212, 4-(3-Chloro-2,6-difluorobenzoyl)-N-(piperidin-4-yl)-1H-pyrrole-2-carboxamide] belongs 292 nM; to `COc1ccc(Cl)c(C(=O)c2c[nH]c(C(=O)Nc3cnn(Cc4ccncc4)c3)c2)c1F` [Example 67], 16.3 nM; to `Cc1ccc(NC(=O)c2cc(C(=O)c3c(F)cccc3Cl)c[nH]2)cn1` [Example 150, 4-(2-Chloro-6-fluorobenzoyl)-N-(6-methylpyridin-3-yl)-1H-pyrrole-2-carboxamide], 1030 nM. For `O=C(Nc1cnc(N2CCCC2)nc1)c1cc(C(=O)c2c(F)cccc2Cl)c[nH]1` [Example 14, 4-(2-Chloro-6-fluorobenzoyl)-N-(2-(pyrrolidin-1-yl)pyrimidin-5-yl)-1H-pyrrole-2-carboxamide], the IC50 is 4110 nM. With `COc1ccc(Cl)c(C(=O)c2c[nH]c(C(=O)Nc3ccc(NC4CCN(C)CC4)nc3)c2)c1F` [Example 61, 4-(6-Chloro-2-fluoro-3-methoxybenzoyl)-N-(6-((1-methylpiperidin-4-yl)amino)pyridin-3-yl)-1H-pyrrole-2-carboxamide], the concentration for half-maximal inhibition (IC50) turned out to be 26.9 nM. In the case of `CS(=O)(=O)CCNc1ncc(NC(=O)c2cc(C(=O)c3c(Cl)ccc(Cl)c3F)c[nH]2)cn1` [Example 101, 4-(3,6-Dichloro-2-fluorobenzoyl)-N-(2-((2-(methylsulfonyl)ethyl)amino)pyrimidin-5-yl)-1H-pyrrole-2-carboxamide] it was 115 nM; in that of `CN1CCC(NC(=O)c2cc(C(=O)c3c(F)ccc(F)c3Cl)c[nH]2)CC1` [Example 216, 4-(2-Chloro-3,6-difluorobenzoyl)-N-(1-methylpiperidin-4-yl)-1H-pyrrole-2-carboxamide], 636 nM; in that of `O=C(Nc1ccncn1)c1cc(C(=O)c2cccc(Cl)c2Cl)c[nH]1` [Example 131, 4-(2,3-Dichlorobenzoyl)-N-(pyrimidin-4-yl)-1H-pyrrole-2-carboxamide], 2660 nM.

Take `O=C(Nc1cncnc1)c1cc(C(=O)c2c(F)cccc2Br)c[nH]1` [Example 145, 4-(2-Bromo-6-fluorobenzoyl)-N-(pyrimidin-5-yl)-1H-pyrrole-2-carboxamide]: the IC50 turned out to be 654 nM.

Turning to `Cc1cc(NC(=O)c2cc(C(=O)c3c(Cl)ccc(Cl)c3F)c[nH]2)no1` [Example 58, 4-(3,6-Dichloro-2-fluorobenzoyl)-N-(5-methylisoxazol-3-yl)-1H-pyrrole-2-carboxamide], the half-maximal inhibitory concentration (IC50) was found to be 2480 nM. On to `O=C(NC1CCN(c2ncccn2)CC1)c1cc(C(=O)c2c(F)cccc2Cl)c[nH]1` [Example 10, 4-(2-Chloro-6-fluorobenzoyl)-N-(1-(pyrimidin-2-yl)piperidin-4-yl)-1H-pyrrole-2-carboxamide], for which the IC50 came out at 264 nM. On to `O=C(Nc1cc[n+]([O-])cc1)c1cc(C(=O)c2c(F)cccc2F)c[nH]1` [Example 127, 4-(4-(2,6-Difluorobenzoyl)-1H-pyrrole-2-carboxamido)pyridine 1-oxide], for which the IC50 is 11500 nM. In the case of `CCc1ccc(F)c(C(=O)c2c[nH]c(C(=O)Nc3cncnc3)c2)c1F` [Example 163, 4-(3-Ethyl-2,6-difluorobenzoyl)-N-(pyrimidin-5-yl)-1H-pyrrole-2-carboxamide], the IC50 came to 3460 nM.

As for `CCCc1ccncc1NC(=O)c1cc(C(=O)c2c(F)cccc2Cl)c[nH]1` [Example 89, 4-(2-Chloro-6-fluorobenzoyl)-N-(4-propylpyridin-3-yl)-1H-pyrrole-2-carboxamide], the half-inhibitory concentration (IC50) worked out at 3340 nM. On to `CCc1ccncc1NC(=O)c1cc(C(=O)c2c(Cl)ccc(Cl)c2F)c[nH]1` [Example 94, 4-(3,6-Dichloro-2-fluorobenzoyl)-N-(4-ethylpyridin-3-yl)-1H-pyrrole-2-carboxamide], for which the IC50 stood at 1670 nM.
